From patent US20160038505A1, “METHODS AND COMPOSITIONS FOR TREATING IMPULSE CONTROL DISORDER, ANXIETY-RELATED DISORDERS, VIOLENCE AND/OR ANGER, OR REGULATING FOOD INTAKE” (priority 2014, published 2016)

How the values were obtained:
[1] = Serum pharmacokinetics in opioid-dependent patients (Phase IB); assay type: in vivo, human; design: unit not given here
Method: Three cohorts of nine (9) subjects (6 administered noribogaine and 3 administered placebo in each cohort) were evaluated for tolerability, pharmacokinetics, and efficacy. Cohort 1 received a single dose of 60 mg noribogaine or placebo. Cohort 2 received a single dose of 120 mg noribogaine or placebo. Cohort 3 received a single dose of 180 mg noribogaine or placebo.
FIG. 4 indicates the serum noribogaine concentration over time for each cohort.

[2] = Plasma toxicokinetics in dogs, 14 day repeat dose study; assay type: in vivo, dog
Method: Noribogaine HCl was administered to groups of 4 male and 4 female dogs by single oral gavage daily for 14 days at doses of 0, 0.5, 1.0 and 5.0 mg/kg/day. An additional group of 4 male and 4 female dogs received either the vehicle control or 5.0 mg/kg/day for 14 days and were held for an additional 28 days after cessation of dosing to assess recovery from any potential drug-induced changes. The study was conducted under GLP guidelines and included comprehensive examinations of clinical signs, body weight, clinical pathology parameters, ophthalmologic examinations, ECG recordings and analyses of plasma for bioanalytical measurement of drug levels at appropriate intervals during the study. At the termination of the dosing phase and at the termination of the recovery phase, all dogs were subjected to a complete post-mortem examination including gross examination of major organs and histologic examination of an extensive list of tissues. Additional sections of brain were obtained from cerebrum, cerebellus, brain stem and spinal cord and examined histologically to evaluate potential effects on brain histopathology. In addition, these sections were examined with immunohistochemical stains for GFAP for evidence of gliosis and Calbindin for a more comprehensive examination of cerebellar Purkinje cells.

[3] = dog, plasma, po, female dogs, 5.0 mg/kg, D 14

CC[C@H]1CC2C[C@H]3c4[nH]c5ccc(O)cc5c4CCN(C2)C13 [noribogaine]
Serum noribogaine concentration ([1]; 60 mg, time 0): 0
Serum noribogaine concentration ([1]; 60 mg, time 0.5): 3.75
Serum noribogaine concentration ([1]; 60 mg, time 1): 17.86
Serum noribogaine concentration ([1]; 60 mg, time 1.5): 42.54
Serum noribogaine concentration ([1]; 60 mg, time 2): 53.01
Serum noribogaine concentration ([1]; 60 mg, time 2.5): 63.71
Serum noribogaine concentration ([1]; 60 mg, time 3): 72.95
Serum noribogaine concentration ([1]; 60 mg, time 3.5): 71.43
Serum noribogaine concentration ([1]; 60 mg, time 4): 72.89
Serum noribogaine concentration ([1]; 60 mg, time 5): 65.74
Serum noribogaine concentration ([1]; 60 mg, time 6): 64.47
Serum noribogaine concentration ([1]; 60 mg, time 7): 58.26
Serum noribogaine concentration ([1]; 60 mg, time 8): 59.01
Serum noribogaine concentration ([1]; 60 mg, time 12): 46.10
Serum noribogaine concentration ([1]; 60 mg, time 16): 37.99
Serum noribogaine concentration ([1]; 60 mg, time 24): 27.76
Serum noribogaine concentration ([1]; 60 mg, time 36): 20.32
Serum noribogaine concentration ([1]; 60 mg, time 48): 14.56
Serum noribogaine concentration ([1]; 60 mg, time 60): 9.32
Serum noribogaine concentration ([1]; 60 mg, time 72): 6.55
Serum noribogaine concentration ([1]; 60 mg, time 96): 3.41
Serum noribogaine concentration ([1]; 60 mg, time 120): 1.64
Serum noribogaine concentration ([1]; 60 mg, time 144): 0.89
Serum noribogaine concentration ([1]; 120 mg, time 0): 0
Serum noribogaine concentration ([1]; 120 mg, time 0.5): 19.66
Serum noribogaine concentration ([1]; 120 mg, time 1): 76.04
Serum noribogaine concentration ([1]; 120 mg, time 1.5): 98.80
Serum noribogaine concentration ([1]; 120 mg, time 2): 122.67
Serum noribogaine concentration ([1]; 120 mg, time 2.5): 135.05
Serum noribogaine concentration ([1]; 120 mg, time 3): 130.55
Serum noribogaine concentration ([1]; 120 mg, time 3.5): 128.20
Serum noribogaine concentration ([1]; 120 mg, time 4): 143.90
Serum noribogaine concentration ([1]; 120 mg, time 5): 128.76
Serum noribogaine concentration ([1]; 120 mg, time 6): 118.16
Serum noribogaine concentration ([1]; 120 mg, time 7): 110.76
Serum noribogaine concentration ([1]; 120 mg, time 8): 102.12
Serum noribogaine concentration ([1]; 120 mg, time 12): 77.88
Serum noribogaine concentration ([1]; 120 mg, time 16): 62.24
Serum noribogaine concentration ([1]; 120 mg, time 24): 44.19
Serum noribogaine concentration ([1]; 120 mg, time 36): 28.83
Serum noribogaine concentration ([1]; 120 mg, time 48): 19.54
Serum noribogaine concentration ([1]; 120 mg, time 60): 10.75
Serum noribogaine concentration ([1]; 120 mg, time 72): 7.75
Serum noribogaine concentration ([1]; 120 mg, time 96): 4.66
Serum noribogaine concentration ([1]; 120 mg, time 120): 2.45
Serum noribogaine concentration ([1]; 120 mg, time 144): 1.20
Serum noribogaine concentration ([1]; 180 mg, time 0): 0
Serum noribogaine concentration ([1]; 180 mg, time 0.5): 10.78
Serum noribogaine concentration ([1]; 180 mg, time 1): 65.68
Serum noribogaine concentration ([1]; 180 mg, time 1.5): 134.19
Serum noribogaine concentration ([1]; 180 mg, time 2): 163.32
Serum noribogaine concentration ([1]; 180 mg, time 2.5): 179.63
Serum noribogaine concentration ([1]; 180 mg, time 3): 221.67
Serum noribogaine concentration ([1]; 180 mg, time 3.5): 236.27
Serum noribogaine concentration ([1]; 180 mg, time 4): 238.87
Serum noribogaine concentration ([1]; 180 mg, time 5): 217.26
Serum noribogaine concentration ([1]; 180 mg, time 6): 197.10
Serum noribogaine concentration ([1]; 180 mg, time 7): 207.47
Serum noribogaine concentration ([1]; 180 mg, time 8): 185.55
Serum noribogaine concentration ([1]; 180 mg, time 12): 159.53
Serum noribogaine concentration ([1]; 180 mg, time 16): 127.63
Serum noribogaine concentration ([1]; 180 mg, time 24): 97.34
Serum noribogaine concentration ([1]; 180 mg, time 36): 59.50
Serum noribogaine concentration ([1]; 180 mg, time 48): 43.75
Serum noribogaine concentration ([1]; 180 mg, time 60): 33.69
Serum noribogaine concentration ([1]; 180 mg, time 72): 23.06
Serum noribogaine concentration ([1]; 180 mg, time 96): 13.04
Serum noribogaine concentration ([1]; 180 mg, time 120): 3.37
Serum noribogaine concentration ([1]; 180 mg, time 144): 1.61
Cmax at 1 day of dosing ([2]; dog, plasma, po, female dogs, 0.5 mg/kg, D 1): 25.3 ng/mL
Cmax at 14 day of dosing ([2]; dog, plasma, po, female dogs, 0.5 mg/kg, D 14): 29.8 ng/mL
Cmax at 1 day of dosing ([2]; dog, plasma, po, female dogs, 1.0 mg/kg, D 1): 68.5 ng/mL
Cmax at 14 day of dosing ([2]; dog, plasma, po, female dogs, 1.0 mg/kg, D 14): 74.1 ng/mL
Cmax at 1 day of dosing ([2]; dog, plasma, po, female dogs, 5.0 mg/kg, D 1): 691 ng/mL
Cmax at 14 day of dosing [2, 3]: 683 ng/mL
Tmax at 14 day of dosing [2, 3]: 0.6 h
AUC0-24 h ([2]; female dogs, 0.5 mg/kg, D 1): 40.4 ng·h/mL
AUC0-last ([2]; female dogs, 0.5 mg/kg, D 1): 31.5 ng·h/mL
AUC0-∞ ([2]; female dogs, 0.5 mg/kg, D 1): 44.9 ng·h/mL
T1/2 ([2]; female dogs, 0.5 mg/kg, D 1): 1.0 h
Tmax ([2]; female dogs, 0.5 mg/kg, D 1): 0.5 h
AUC0-24 h ([2]; female dogs, 0.5 mg/kg, D 14): 55.0 ng·h/mL
AUC0-last ([2]; female dogs, 0.5 mg/kg, D 14): 35.4 ng·h/mL
AUC0-∞ ([2]; female dogs, 0.5 mg/kg, D 14): 45.7 ng·h/mL
T1/2 ([2]; female dogs, 0.5 mg/kg, D 14): 1.1 h
Tmax ([2]; female dogs, 0.5 mg/kg, D 14): 1.0 h
AUC0-24 h ([2]; female dogs, 1.0 mg/kg, D 1): 176.2 ng·h/mL
AUC0-last ([2]; female dogs, 1.0 mg/kg, D 1): 148.9 ng·h/mL
AUC0-∞ ([2]; female dogs, 1.0 mg/kg, D 1): 165.3 ng·h/mL
T1/2 ([2]; female dogs, 1.0 mg/kg, D 1): 1.4 h
Tmax ([2]; female dogs, 1.0 mg/kg, D 1): 0.8 h
AUC0-24 h ([2]; female dogs, 1.0 mg/kg, D 14): 203.7 ng·h/mL
AUC0-last ([2]; female dogs, 1.0 mg/kg, D 14): 169.0 ng·h/mL
AUC0-∞ ([2]; female dogs, 1.0 mg/kg, D 14): 197.0 ng·h/mL
T1/2 ([2]; female dogs, 1.0 mg/kg, D 14): 1.6 h
Tmax ([2]; female dogs, 1.0 mg/kg, D 14): 0.5 h
AUC0-24 h ([2]; female dogs, 5.0 mg/kg, D 1): 3367.9 ng·h/mL
AUC0-last ([2]; female dogs, 5.0 mg/kg, D 1): 3367.9 ng·h/mL
AUC0-∞ ([2]; female dogs, 5.0 mg/kg, D 1): 3425.7 ng·h/mL
T1/2 ([2]; female dogs, 5.0 mg/kg, D 1): 4.3 h
AUC0-24 h ([2]; female dogs, 5.0 mg/kg, D 14): 5951.2 ng·h/mL
AUC0-last ([2]; female dogs, 5.0 mg/kg, D 14): 5951.2 ng·h/mL
AUC0-∞ ([2]; female dogs, 5.0 mg/kg, D 14): 6283.2 ng·h/mL
T1/2 ([2]; female dogs, 5.0 mg/kg, D 14): 5.7 h
AUC0-24 h ([2]; male dogs, 0.5 mg/kg, D 1): 59.7 ng·h/mL
AUC0-last ([2]; male dogs, 0.5 mg/kg, D 1): 46.6 ng·h/mL
AUC0-∞ ([2]; male dogs, 0.5 mg/kg, D 1): 67.8 ng·h/mL
Cmax ([2]; male dogs, 0.5 mg/kg, D 1): 28.8 ng/mL
T1/2 ([2]; male dogs, 0.5 mg/kg, D 1): 1.3 h
Tmax ([2]; male dogs, 0.5 mg/kg, D 1): 0.7 h
AUC0-24 h ([2]; male dogs, 0.5 mg/kg, D 14): 64.5 ng·h/mL
AUC0-last ([2]; male dogs, 0.5 mg/kg, D 14): 53.2 ng·h/mL
AUC0-∞ ([2]; male dogs, 0.5 mg/kg, D 14): 68.2 ng·h/mL
Cmax ([2]; male dogs, 0.5 mg/kg, D 14): 29.4 ng/mL
T1/2 ([2]; male dogs, 0.5 mg/kg, D 14): 1.3 h
Tmax ([2]; male dogs, 0.5 mg/kg, D 14): 0.7 h
AUC0-24 h ([2]; male dogs, 1.0 mg/kg, D 1): 119.8 ng·h/mL
AUC0-last ([2]; male dogs, 1.0 mg/kg, D 1): 102.5 ng·h/mL
AUC0-∞ ([2]; male dogs, 1.0 mg/kg, D 1): 120.8 ng·h/mL
Cmax ([2]; male dogs, 1.0 mg/kg, D 1): 58.6 ng/mL
T1/2 ([2]; male dogs, 1.0 mg/kg, D 1): 1.2 h
Tmax ([2]; male dogs, 1.0 mg/kg, D 1): 0.9 h
AUC0-24 h ([2]; male dogs, 1.0 mg/kg, D 14): 210.4 ng·h/mL
AUC0-last ([2]; male dogs, 1.0 mg/kg, D 14): 172.3 ng·h/mL
AUC0-∞ ([2]; male dogs, 1.0 mg/kg, D 14): 195.7 ng·h/mL
Cmax ([2]; male dogs, 1.0 mg/kg, D 14): 67.6 ng/mL
T1/2 ([2]; male dogs, 1.0 mg/kg, D 14): 1.8 h
Tmax ([2]; male dogs, 1.0 mg/kg, D 14): 0.8 h
AUC0-24 h ([2]; male dogs, 5.0 mg/kg, D 1): 3515.0 ng·h/mL
AUC0-last ([2]; male dogs, 5.0 mg/kg, D 1): 3515.0 ng·h/mL
AUC0-∞ ([2]; male dogs, 5.0 mg/kg, D 1): 3630.5 ng·h/mL
Cmax ([2]; male dogs, 5.0 mg/kg, D 1): 693 ng/mL
T1/2 ([2]; male dogs, 5.0 mg/kg, D 1): 4.7 h
AUC0-24 h ([2]; male dogs, 5.0 mg/kg, D 14): 6403.3 ng·h/mL
AUC0-last ([2]; male dogs, 5.0 mg/kg, D 14): 6403.3 ng·h/mL
AUC0-∞ ([2]; male dogs, 5.0 mg/kg, D 14): 6961.4 ng·h/mL
Cmax ([2]; male dogs, 5.0 mg/kg, D 14): 716 ng/mL
T1/2 ([2]; male dogs, 5.0 mg/kg, D 14): 6.5 h
Tmax ([2]; male dogs, 5.0 mg/kg, D 14): 0.9 h
